Assay results reported in article PMC6494957 (Frontiers in Microbiology, 2019).
Where two headings read alike, the source gives them in different places.

How the values were obtained:
E. coli ATCC 11229 = test: microbe, parasite or virus in culture; conditions: for DRI EDTA:ROB: DRI of the labelled component; for MIC: Escherichia coli
Method: (§1) The MIC for ampicillin or gentamicin against each isolate was determined for each test to serve as an internal quality control. The MICs of isolates were determined by visual reading and using an EnSpire Multimode Plate Reader 2300 atA600nm.
(§2) Briefly, antimicrobial stock solutions for robenidine and PMBN were prepared at a concentration of 12.8 mg/ml in DMSO. […] A 1 μl aliquot of the first compound from each combination was dispensed along the abscissa (from row A to G) of the 96-well microplate, while the second compound was dispensed along the ordinate (from column 12 to column 3) using an electronic multichannel pipette followed by 89 μl of LB broth. Each well of the plate was inoculated with an aliquot of 10 μl bacterial suspension at a concentration of 1-5 × 10^6 colony forming units (CFU) per ml. Subsequently, the plate was incubated at 37°C for 24 h. The fractional inhibitory concentration index (FICI) described the results of the combinations, and was calculated utilizing the following formula:
(§3) DRI = MIC of drug alone/MIC of drug in combination

P. aeruginosa ATCC 27853 = test: microbe, parasite or virus in culture; conditions: for DRI EDTA:ROB: DRI of the labelled component; for MIC: Pseudomonas aeruginosa
Method: as §1, §2, §3

[1] = system: P. mirabilis (n = 21) clinical isolates from otitis externa cases in dogs; test: MIC/MBC and checkerboard, canine otitis externa isolates; assay type: cell-based, Proteus mirabilis; conditions: for MIC50 / MIC90: Proteus mirabilis; for MIC50, in combination of EDTA and ROB / MIC90, in combination of EDTA and ROB / MIC range, in combination of EDTA and ROB: concentration of the labelled component
Text: Escherichia coli ATCC 25922, E. coli ATCC 11229, P. aeruginosa ATCC 27853, P. aeruginosa PA01, Pseudomonas putida ATCC 17428, P. mirabilis ATCC 43071, K. pneumoniae ATCC 13883, A. baumannii ATCC 19606, and A. baumannii ATCC 12457 were used for preliminary susceptibility testing and combination experiments. S. aureus ATCC 29213 and S. pneumoniae ATCC 49619 were used as internal quality controls. A variety of bacterial organisms from both human and canine infections were investigated in this study (n = 119 isolates in total). Twenty-eight clinical Acinetobacter spp. isolates were obtained from cases of human skin and soft tissue infections, including 18 Acinetobacter baumannii and 10 A. calcoaceticus, kindly provided by a person (Institute of Medical and Veterinary Science, South Australia). […] Ninety-one clinical isolates were obtained from cases of canine otitis externa, including seven methicillin-susceptible S. pseudintermedius (MSSP), 13 multidrug- and methicillin-resistant S. pseudintermedius (MRSP) ([Saputra et al., 2017]), 20 beta-haemolytic Streptococcus spp., 30 P. aeruginosa (10 of them resistant to gentamicin and 21 P. mirabilis isolates). These isolates were obtained from the bacterial collection of the national survey of antimicrobial resistance in animals conducted in Australia. Swab samples from dogs with signs of otitis externa were collected by veterinarians and submitted to government, private or university diagnostic laboratories throughout Australia. After routine bacterial identification and the removal of confidential information, the participating veterinary diagnostic laboratories submitted the bacteria and their clinical information to PC2 Laboratories, Australian Centre for Antimicrobial Resistance Ecology, School of Animal and Veterinary Sciences, University of Adelaide, Roseworthy Campus, Roseworthy, SA, Australia, for further study. Thus, animal ethics approval was not required in this study. These organisms were identified to species level using biochemical testing and MALDI-TOF mass spectrometry (Bruker, Preston, VIC, Australia).
as §1
Briefly, 10 μl aliquots from each duplicate well from the MIC assays (starting from the MIC for each compound) were inoculated onto a sheep blood agar (SBA) plate and incubated at 37°C.
as §2, §3

[2] = system: preformed biofilms of P. aeruginosa PA01 and clinical isolates of P. aeruginosa; test: Antibiofilm susceptibility (MBEC device) and biofilm checkerboard; assay type: cell-based, Pseudomonas aeruginosa
Method: (§4) Briefly, biofilms of P. aeruginosa PA01, two clinical isolates of P. aeruginosa isolates and two clinical isolates of S. pseudintermedius were formed by inoculating 150 μl of 10^7 CFU/ml of each bacterial suspension in the MBEC^TM device. The inoculated device was aerobically incubated on an orbital shaker at 37°C (OM11, Ratek Instruments Pty Ltd., Australia) for 24 h to produce equivalent (Uniform) biofilms on all pegs. […] Following antimicrobial challenge, the biofilms were rinsed twice with phosphate buffered saline (pH = 7) and disrupted via sonication (Soniclean, Model 160TD, Australia) for 10 min into the recovery medium. Viable cell counts were determined for recovered cells (colony-forming units per peg) after preparing a serial dilution and plating 10 μl in duplicates of each dilution onto plate count agar. Viable counts were then expressed as a percentage of the mean CFU of growth controls. MBEC was defined as the lowest concentration of antimicrobial agent that eradicates the biofilms recovered from the antimicrobial challenge.
(§5) Briefly, the MBEC^TM High-throughput assay system (MBEC^TM BioProducts, Innovotech, Canada) was used for the preparation of Gram-positive and Gram-negative biofilm producing bacteria as described above for antibiofilm susceptibility testing. […] Subsequently, the plate was incubated at 37°C for 24 h.

[3] = system: preformed biofilms of two clinical isolates of S. pseudintermedius; test: as above; assay type: cell-based, Staphylococcus pseudintermedius
Method: as §4, §5

HaCaT cell line = test: In vitro cytotoxicity, WST-1; assay type: cell-based; conditions: Homo sapiens, 10% FBS, read-out: IC50, single agent
Method: Cells were maintained in Dulbecco’s modified Eagle’s medium (DMEM) with 10% fetal bovine serum (FBS) and 1% PenStrep (100 U/mL Penicillin and 100 μg/mL Streptomycin) at 37°C with 5% CO2. Cells were serially passaged at ∼80% confluence ∼ every 4 days. Assays were performed in duplicate in 96 well plates seeded with ∼25,000 cells per well. […] Briefly, the antimicrobials were prepared by performing a twofold serial dilution at 100× of tested concentration in DMSO. Subsequently, a 1 μl aliquot of each concentration was transferred to a sterile 96-well plate containing fresh DMEM with either 10% FBS. After mixing four times, the media aliquots with different concentrations of antimicrobial were transferred to each well of the 96-well plate seeded with cells, using wells containing 1–2% DMSO only as control. To determine the effect of FBS on the cytotoxicity of each compound, DMEM with 40% FBS containing different concentrations of antimicrobial was prepared as described above. After 24 h of exposure, WST-1 reagent (Cell Proliferation Assay reagent, Roche) at a concentration of 10% was added to each well. Absorbance at A450 nm on a Multiskan Ascent 354 Spectrophotometer (Labsystems) was measured after 1 h of incubation. The IC50 value was determined for each compound against each cell line via non-linear regression (three parameters) using GraphPad Prism v6 software.

[4] = E. coli ATCC 11229, concentration of the labelled component
[5] = ATCC11229, read-out: MIC, single drug
[6] = P. aeruginosa ATCC 27853, concentration of the labelled component
[7] = ATCC27853, read-out: MIC, single drug
[8] = canine otitis externa, read-out: MIC50, single drug
[9] = canine otitis externa, read-out: MIC90, single drug

SMILES | DRI EDTA:ROB (E. coli ATCC 11229; E. coli ATCC 11229) | MIC in combination EDTA:ROB (E. coli ATCC 11229; [4]) | MIC (E. coli ATCC 11229; [5]) | DRI EDTA:ROB (P. aeruginosa ATCC 27853; P. aeruginosa ATCC 27853) | MIC in combination EDTA:ROB (P. aeruginosa ATCC 27853; [6]) | MIC (P. aeruginosa ATCC 27853; [7]) | MIC50 [1, 8] | MIC90 [1, 9] | MIC range, single drug ([1]; canine otitis externa) | MIC50, in combination of EDTA and ROB [1] | MIC90, in combination of EDTA and ROB [1] | MIC range, in combination of EDTA and ROB [1] | IC50 (HaCaT cell line) | also measured
O=C(O)CN(CCN(CC(=O)O)CC(=O)O)CC(=O)O [EDTA, ethylenediaminetetraacetic acid] | 4 | 228 µg/mL | 950 µg/mL | 2 | 1900 µg/mL | 3800 µg/mL | 380 µg/mL | 750 µg/mL | 190 to 750 µg/mL | 380 µg/mL | 380 µg/mL | 190 to 380 µg/mL | 3.8 mM | MIC in combination EDTA:ROB (mM in parentheses) (E. coli ATCC 11229; E. coli ATCC 11229, EDTA component): 0.6 mM; MIC (E. coli ATCC 11229; ATCC11229, read-out: MIC, single drug (mM in parentheses)): 2.5 mM; MIC in combination EDTA:ROB (mM in parentheses) (P. aeruginosa ATCC 27853; P. aeruginosa ATCC 27853, EDTA component): 5 mM; MIC (P. aeruginosa ATCC 27853; ATCC27853, read-out: MIC, single drug (mM in parentheses)): 10 mM; MBC/MIC row, EDTA in combination [1]: 750 µg/mL; MBC/MIC row, EDTA in combination (mM in parentheses) [1]: 2 mM; MIC range, single drug (mM in parentheses) [1]: 0.5 to 2 mM; MIC50, in combination of EDTA and ROB (mM in parentheses) ([1]; EDTA component): 1 mM; MIC90, in combination of EDTA and ROB (mM in parentheses) ([1]; EDTA component): 1 mM; MIC range, in combination of EDTA and ROB (mM in parentheses) ([1]; EDTA component): 0.5 to 1 mM; MIC50 ([1]; read-out: MIC50, single drug (mM in parentheses)): 1 mM; MIC90 ([1]; read-out: MIC90, single drug (mM in parentheses)): 2 mM; concentration with significant disruption of 24 h preformed biofilms ([2]; Gram-negative (P. aeruginosa) biofilms, vs growth control): 1 mM; concentration with significant disruption of 24 h preformed biofilms ([3]; Gram-positive (S. pseudintermedius) biofilms, vs growth control): 1 mM
N=C(N/N=C/c1ccc(Cl)cc1)N/N=C/c1ccc(Cl)cc1 [ROB, robenidine] | 32 | 8 µg/mL | > 256 µg/mL | 256 | 1.25 µg/mL | > 256 µg/mL | > 256 µg/mL | > 256 µg/mL | >256 µg/mL | 0.125 µg/mL | 0.5 µg/mL | 0.125 to 4 µg/mL | 14 µg/mL | MIC, single drug (E. coli ATCC 11229; E. coli ATCC 11229): >256 µg/mL; MIC in combination PMBN:ROB (E. coli ATCC 11229; [4]): 8 µg/mL; MIC, single drug (P. aeruginosa ATCC 27853; P. aeruginosa ATCC 27853): >256 µg/mL; MIC in combination PMBN:ROB (P. aeruginosa ATCC 27853; [6]): 1 µg/mL; MBC/MIC, ROB in combination with EDTA [1]: ≥2; antibiofilm activity ([2]; P. aeruginosa biofilms, up to 128 μg/ml, 24 h): did not show any antibiofilm activity; antibiofilm activity ([3]; S. pseudintermedius biofilms, up to 128 μg/ml, 24 h): did not show any antibiofilm activity
